Results from patent publication US6831080B2, “Cinnamide derivatives as KCNQ potassium channel modulators” (Bristol-Myers Squibb Company, priority 2001, dated 2004).
Counter-ions that a name gives are not always drawn.

How the values were obtained:
mKCNQ2 channels = biological target: T1, mKCNQ2 channels (Mus musculus, UniProt Q9Z351); experiment: Whole-cell patch-clamp, HEK 293 stable cell line expressing mKCNQ2 channels; format: cell-based; details: HEK 293 mKCNQ2, Hill fit
T1 construct: expressed in transfected cells
Procedure: Whole-cell patch-clamp recordings were made from an HEK 293 stable cell line expressing mKCNQ2 channels, maintained in culture for 1-2 days. Patch pipettes had initial resistances of 2.5-4 MΩ. Currents were recorded with an EPC-9 amplifier (HEKA, Lambrecht, Germany) controlled with software (Pulse, HEKA) run on a standard lab PC. Series resistance compensation was used during current recording, and set at 80%. The series resistance (R) and cell capacitance (C) were determined electronically by subtracting the capacitive currents at the onset and offset of a 5 mV voltage step. The cancellation of whole-cell capacitance transients was virtually complete in all cells. Analog current signals were low-pass filtered at 2.9 kHz using a four-pole Bessel filter −3 dB) and stored on a local network server computer at a sampling rate of […]. All recordings were performed at room temperature (20-22° C.). The pipette solution contained (mM): KCl, 150; CaCl2, 2.5; EGTA, 5; MgCl2, 1; HEPES, 10; pH to 7.3 with KOH, and Osmolality of 290-300 mOsm. The extracellular solution contained (mM): NaCl, 140; KCl, 2.5; CaCl2, 2.5; MgCl2, 1; glucose, 10; HEPES, 10; pH to 7.3 with NaOH, and Osmolality of 305-310 mOsm
Concentration response data were generated by measuring the difference in the steady-state amplitude of current in the presence of compound at the end of a 600 ms voltage-clamp step from a holding potential of −80 mV. The concentration-response data were fitted with Hill-type equations: […]
where I is the steady-state current at a given concentration of agonist [A]; and Imax, EC50 and nH are parameters estimated from the curve fit. In some cases the concentration-response data were fitted with equations consisting of the sum of two Hill-type components. Current-voltage (I/V) relationships for agonist-evoked currents were obtained by performing 600 ms voltage steps (−110 mV to +40 mV) in the absence and presence of agonist.

[1] = system: cortical spreading depression (KCl application), Long-Evans rats; experiment: In vivo electrophysiology: number of cortical spreading depressions produced by KCl application; details: 1 mg/kg, i.v., 15 min prior to KCl; rat
Source text: Male Long-Evans rats (300-450 g) were used in the present studies (Harlan). Rats were anesthetized with urethane anesthesia (1.2 g/kg i.p.) and placed in a stereotaxic frame. Under anesthesia a Silastic catheter was placed in the jugular vein of the rats. The skull was exposed using a scalpel. A small hole (approximately 2 mm by 3 mm) was drilled in to the skull rostral to the lambdoid suture using a microdrill and steel burr. The dura was disrupted and a drop of mineral oil was placed in this hole to prevent dehydration of the underlying cortex. Ultimately this hole was used for the application of crystalline KCl (described below).
Two additional holes were place in the skull unilaterally at 4 and 8 mm rostral to the application hole. Silver wire electrodes were placed in these latter holes and secured to the skull using acrylic cement. A similar silver wire electrode was sutured to the nuchal muscle to serve as a reference electrode. Electrical DC recordings were obtained using a standard differential amplifier (Warner, DP-304) and commercially available data acquisition equipment (Cambridge Electronic Design, 1401 A-D converter and Spike2 software).
All experimental procedures were conducted while the rats were maintained under anesthesia. Rats were injected with test compound, valproic acid or vehicle (100% PEG-400) 15 min prior to the application of crystalline KCl to the application site described above. All injections were given via the jugular vein at a volume of ≦0.5 ml/kg. Only one treatment was tested per animal. The effect of valproic acid was also determined in this study due to the fact that Depakote™ (divalproex sodium) is one of only three drugs currently indicated for the prophylatic treatment of migraine headache. Valproic acid (30-200 mg/kg i.v.) was obtained from Sigma Chemical Company and was dissolved in a vehicle of isotonic saline.
KCl was applied to the application site for 10 min and was then removed using a saline soaked cotton swab. Mineral oil was subsequently reapplied to the application site. Typically, this application produced a long-lasting series of spreading depressions. The number of spreading depressions produced by this KCl application was the primary measure used to access the effectiveness of compounds in this assay.
Data were analyzed using analyses of variance followed by the Dunnett post-hoc test for pairwise comparisons, when appropriate. A difference was considered significant when p≦0.05.
The effect of representative compounds of Formula I on spreading depression is expressed as the percent reduction from vehicle control and is listed in Table 3.

[2] = system: nerve injury-induced tactile allodynia (L5/L6 ligation), Sprague Dawley rats; experiment: Chung model of neuropathic pain (Chung surgery and von Frey test); format: in vivo, rat; details: 3 mg/kg, i.v., von Frey thresholds over 90 min
Procedure: To test agents for activity against peripheral mononeuropathy nerve injury-induced tactile allodynia, male Sprague Dawley rats (wt. 120-160 g) were surgically prepared with unilateral tight ligation of spinal nerves L5 and L6 following the method of Kim and Chung (Kim S. H., Chung J. M. (1992) Pain, September;50(3):355-63). After 3-4 weeks recovery, paw withdrawal to light touch was assessed as described by Chaplan et al. (Chaplan S. R., et al., (1994) J. Neurosci Methods, July;53(1):55-63). In brief, rats are placed in a plastic cage with a wire mesh bottom and allowed to acclimate for 15-30 minutes, until cage exploration and grooming stops. The plantar surface of each hind paw is touched with a series of von Frey hairs with varying stiffness requiring a known force to buckle to determine the nociceptive threshold. Adult male Sprague Dawley rats (avg. wt. 340 g) were tested in the present study. After acclimation, baseline von Frey thresholds were assessed for the injured hindpaw at −15 min. All test compounds were delivered at 0 min by the intravenous (i.v.) route in a volume of 0.5-2 ml/kg. The vehicle for test compounds was 100% PEG-400. For gabapentin the vehicle was deionized H2O. Animals were tested in one of the following 4 treatment conditions: (a) PEG400, (b) gabapentin (Neurontin) 100 mg/kg, (c) test compounds 3 mg/kg and (d) test compounds 10 mg/kg. Following drug administration, von Frey thresholds are measured at 15, 30, 60 and 90 min. Data were analyzed by a 2-way repeated measures analysis of variance followed by Dunnett's test (p<0.05). Experimenters were kept blind to the treatment condition of rats they tested.
Reversal of neuropathic pain behavior may be expressed as a percentage (0-100%) of the maximum possible effect, over and above the vehicle effects. Specifically, drug effects can be described in terms Δ% MPE according to the following equation: [formula]
AUCdrug=area under the curve for von Frey thresholds of the drug-treated group;
AUCvehicle=area under the curve for von Frey thresholds in the vehicle group;
Time=duration of post-drug testing period (90 min); and
Max=maximum von Frey threshold (15 g).
For example, a compound which immediately reversed neuropathic pain behavior to normal levels, such that animals only responded to the highest von Frey filament (15 g), and maintained normal levels through out the post-drug testing period (90 min) would be calculated as Δ% MPE=100%.

[3] = system: streptozoticin-induced tactile allodynia, Sprague Dawley rats; experiment: Diabetic model of neuropathic pain (streptozoticin and von Frey test); format: in vivo, rat; details: 10 mg/kg, i.v.; von Frey thresholds over 90 min; STZ diabetic model
Procedure: To test agents for activity against systemic polyneuropathy nerve injury-induced tactile allodynia, animals were treated with streptozoticin (STZ) to create a diabetic condition by selective cytotoxic action upon pancreatic β-islet cells that produce insulin following the method of Courteix, et al. (Courteix C., et al., (1993) Pain, April;53(1):81-8). In brief, male Sprague Dawley rats (wt. 200-275 g) received an injection of STZ (75 mg/kg, i.p.) and diabetes was confirmed three weeks after STZ injection by measurement of tail vein blood glucose levels. After 3-4 weeks, paw withdrawal to light touch was assessed as described by Chaplan et al. (Chaplan S. R., et al., (1994) J Neurosci Methods, July;53(1):55-63). In brief, rats are placed in a plastic cage with a wire mesh bottom and allowed to acclimate for 15-30 minutes, until cage exploration and grooming stops. The plantar surface of each hind paw is touched with a series of von Frey hairs with varying stiffness requiring a known force to buckle to determine the nociceptive threshold. Adult male Sprague Dawley rats (avg. wt. 300 g) were tested in the present study. After acclimation, baseline von Frey thresholds were assessed for the injured hindpaw at -15 min. All test compounds were delivered at 0 min by the intravenous (i.v.) route in a volume of 0.5-2 ml/kg. […] Animals were tested in one of the following 4 treatment conditions: […] Following drug administration, von Frey thresholds are measured at 15, 30, 60 and 90 min. Data were analyzed by a 2-way repeated measures analysis of variance followed by Dunnett's test (p<0.05). Experimenters were kept blind to the treatment condition of rats they tested. […] Specifically, drug effects can be described in terms Δ% MPE according to the following equation: {[…] under the curve for von Frey thresholds of the drug-treated group; AUCvehicle=area under the curve for von Frey thresholds in the vehicle group; Time=duration of post-drug testing period (90 min); and Max=maximum von Frey threshold (15 g).

[4] = system: chlordiazepoxide + amphetamine induced hyperactivity, Sprague Dawley rats; experiment: Mania/bipolar model: chlordiazepoxide + d-amphetamine induced hyperactivity, locomotor activity; format: in vivo, rat
Procedure: Subjects: Female Sprague Dawley rats (Hilltop Lab Animals, Scottdale, Pa.), weighing 150-200 g at the beginning of the experiment, were used in the experiment described in this example. Animals were individually housed in standard shoebox cages and maintained on a 12:12 h light-dark cycle (lights on at 0600). All animals were allowed food and water ad libitum throughout the experimental procedure. Prior to arrival to the testing facility, the rats were anesthetized with vaporized Isoflurane and catheters were surgically implanted into the jugular vein. The catheters were made of silastic medical grade tubing (15 cm long, 0.02″ internal diameter, 0.037″ external diameter), fastened with sutures to muscle near the jugular vein and at the nape of the neck, then sealed with smooth pieces of monofilament that were secured at the nape of the neck.
Lithium chloride (LiCl), chlordiazepoxide hydrochloride (CDP) and d-amphetamine sulfate (Amph) were obtained from Sigma Chemical Company (St. Louis, Mo.). LiCl was dissolved in a vehicle of isotonic saline and injected intraperitoneally (i.p.) at a dose of 2 mEq/kg. CDP and Amph were dissolved in a vehicle of sterile water (Phoenix Scientific, Inc., St. Joseph, Mo.) and injected subcutaneously (s.c.) at a dose of 12.5 mg/kg and 1.18 mg/kg, respectively. Combination treatment of CDP and Amph represented the s.c. injection of a 1:1 mixture of both compounds at the above referenced doses. Compound of Example 1 was dissolved in dimethylsulfoxide (DMSO) and brought to volume with propylene glycol (PG) such that the final vehicle represented a 4% DMSO/96% PG solution. […]
Thirty minutes after final s.c. dosing with either CDP+Amph, Amph alone or vehicle, rats were placed in locomotor activity testing apparatus. […] Data were analyzed using a priori planned analyses of variance where an effect was considered significant if p<0.05.

T1 sequence (Q9Z351 whole entry): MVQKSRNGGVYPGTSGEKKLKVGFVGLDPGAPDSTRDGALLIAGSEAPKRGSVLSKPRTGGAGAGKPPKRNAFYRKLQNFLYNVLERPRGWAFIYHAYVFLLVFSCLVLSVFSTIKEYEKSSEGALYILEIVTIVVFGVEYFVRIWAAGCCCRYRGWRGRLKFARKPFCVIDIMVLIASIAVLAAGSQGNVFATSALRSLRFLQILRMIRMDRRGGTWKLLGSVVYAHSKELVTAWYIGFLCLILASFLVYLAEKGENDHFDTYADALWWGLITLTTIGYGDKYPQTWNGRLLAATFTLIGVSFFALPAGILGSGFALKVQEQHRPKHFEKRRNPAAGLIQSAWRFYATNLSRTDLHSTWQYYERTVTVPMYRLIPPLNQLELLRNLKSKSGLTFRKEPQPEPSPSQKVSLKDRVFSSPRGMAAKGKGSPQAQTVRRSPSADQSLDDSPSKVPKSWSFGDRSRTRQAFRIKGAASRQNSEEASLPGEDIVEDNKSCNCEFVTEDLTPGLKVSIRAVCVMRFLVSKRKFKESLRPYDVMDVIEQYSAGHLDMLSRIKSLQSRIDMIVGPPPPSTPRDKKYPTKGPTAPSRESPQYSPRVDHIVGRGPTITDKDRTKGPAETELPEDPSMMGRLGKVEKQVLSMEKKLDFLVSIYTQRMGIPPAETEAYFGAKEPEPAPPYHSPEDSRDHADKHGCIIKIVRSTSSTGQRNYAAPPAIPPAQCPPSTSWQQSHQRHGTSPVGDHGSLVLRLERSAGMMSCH

Structure (SMILES): C[C@H](NC(=O)/C=C/c1cc(F)ccc1F)c1cccc(N2CCOCC2)c1 [Example 90, (S)-3-(2,5-Difluoro-phen-yl)-N-[1-(3-morpho-lin-4-yl-phenyl)-eth-yl]-acrylamide]
- EC50 (mKCNQ2 channels; @ −40 mV): 1.2 µM
- Emax (mKCNQ2 channels; HEK293, read-out: Imax (%)): 523%
- % Reduction (number of spreading depressions, from vehicle control) [1]: 37 (1 mg/kg, i.v.) %
- AUC (Δ% MPE) [2]: 13 (3 mg/kg, i.v.) Δ% MPE
- AUC (Δ% MPE) [3]: 56 (10 mg/kg, i.v.) Δ% MPE

Structure (SMILES): C[C@H](N)Cc1ccccc1 [d-amphetamine, d-amphetamine sulfate, reference compound]
- Horizontal Activity Counts ([4]; rat, in vivo): 8,772.3 + 426.02 counts

Structure (SMILES): C[C@H](NC(=O)/C=C/c1ccc(F)cc1)c1ccc2ccccc2c1 [Compound of Example 1]
- Horizontal Activity Counts ([4]; 5 mg/kg i.v. 45 minutes pre-test, then chlordiazepoxide + d-amphetamine, first 10 minutes of testing): 7,859.2 + 661.21 counts
- Effect on augmentation of locomotor scores produced by the combination treatment ([4]; 5 mg/kg i.v. 45 minutes pre-test, F(1,16)=10.4, p=0.005): significantly prevented
